Molecules are shown by their SMILES.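 Method: 48-hour compound exposure of cells in 96-well plates, five concentrations, linear interpolation of endpoints. TGI marks complete inhibition of growth.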

Holding throughout (assay): NCI anticancer screen, dose series, 48 h
The test system of test [1] is 786-0 renal.
Test [2] has as its system COLO 205 colon.
For test [3], the system named is SN12C renal.
Test [4] relates to KM12 colon.
In test [5] the test system is SK-OV-3 ovarian.
For test [6], the system named is MDA-N.
Test [7] deals with OVCAR-4 ovarian.
Test [8] has as its system OVCAR-5 ovarian.
In test [9] the test system is HOP-92 NSCLC.
Test [10] relates to SNB-75 CNS.
Test [11] deals with HCT-116 colon.
Test [12] deals with BT-549 breast.
Test [13] relates to HCT-15 colon.
In test [14] the test system is DU-145 prostate.
Test [15] relates to RXF 393 renal.
Test [16] concerns HS 578T breast.
For test [17], the system named is LOX IMVI melanoma.
Test [18] relates to SK-MEL-28 melanoma.
Test [19] deals with SNB-19 CNS.
The test system of test [20] is MDA-MB-231 breast.

Consider `CC(NC(=O)/C(C#N)=C/c1ccc2[nH]ccc2c1)c1ccccc1` (stereo not drawn), for which the TGI in test [1] was 31.8 µM; in test [2], 30.7 µM; in [3] it was 35 µM; in [4], 32.2 µM; in test [5] it was 40.4 µM; in test [6], 31.4 µM. For the same molecule, the TGI amounted to 49.5 µM in test [7]; 37.3 µM in test [8]; 33.5 µM in test [9]; 60.5 µM in test [10]; 28.1 µM in [11]; 23.5 µM in test [12]. The TGI worked out at 27.6 µM in test [13]; 39.8 µM in test [14]; 34.5 µM in test [15]; 66.4 µM in [16]; 31.8 µM in test [17]; 36.9 µM in test [18]. The molecule further came in with a TGI in [19] of 45.1 µM.
On to `C=C(C)[C@@H]1CC[C@@H](C)[C@](O)([C@@H]2C[C@@H]([C@H](COC(=O)c3ccccc3)OC(=O)c3ccccc3)OC2=O)C1`, for which the TGI in test [1], in [2], in [3], in [4], in [5] and in test [20] was more than 100 µM in each case. Further, the TGI in test [6], in test [7], in test [8], in [10], in test [11] and in [12] was more than 100 µM throughout. The TGI in [13], in test [14], in test [15], in [17], in test [18] and in [19] was more than 100 µM in each case.
Regarding `COc1ccc(OC)c(NC(=O)C(=O)Nn2c(=S)[nH]c3ccccc3c2=O)c1`, the TGI in test [1], in test [3], in test [4], in [5], in test [20] and in test [6] was more than 100 µM throughout. Moreover, the TGI in test [7], in test [8], in [9], in [10], in [11] and in test [12] was more than 100 µM throughout. Besides, the TGI in [13], in test [15], in test [16], in test [17], in test [18] and in [19] was more than 100 µM each time.
`CN(C)c1ncnc2c1ncn2C1C=CC(COS(N)(=O)=O)C1` (stereo not drawn): the TGI in [1], in [2], in test [3], in test [4], in test [5] and in [6] was more than 100 µM each time. Moreover, the TGI in test [7], in test [9], in test [10], in test [11], in test [12] and in test [13] was more than 100 µM in each case. The TGI in test [14], in test [15], in test [16], in test [17], in test [18] and in [19] was more than 100 µM each time.
As for `CC(C)C[C@H](NC(=O)CCc1ccccc1)B(O)O`, the TGI was found to be 57.5 µM in test [1]; 75.3 µM in test [2]; 61.5 µM in test [3]; 32.8 µM in test [4]; 36.2 µM in test [20]; 7.27 µM in [6]. For the same molecule, the TGI in [7] is more than 100 µM; in [8], 40.2 µM; in [9], 65.1 µM; in [11] it was 18.6 µM; in test [12] it was 57.6 µM; in test [13], 38.1 µM. The TGI is more than 100 µM in test [14]; 19.1 µM in test [15]; 29.6 µM in [16]; 16.7 µM in test [17]; 32.4 µM in test [18]; more than 100 µM in test [19].
For `CCCCSC1=N/C(=C\c2ccco2)C(=O)N1`, the TGI in test [1], in test [2], in [3], in [4], in [5] and in [20] was more than 100 µM throughout. For the same molecule, the TGI in test [6], in test [7], in [8], in test [10], in test [11] and in test [12] was more than 100 µM throughout. Further, the TGI in [13] is more than 100 µM; in test [14], more than 100 µM; in [15], 64.7 µM; in test [16], 88.3 µM; in [18], more than 100 µM; in test [19], more than 100 µM.
In the case of `CN(C)c1ccc(/C=C2\N=C(N/N=C/c3ccccc3)NC2=O)cc1`, the TGI in test [1], in [2], in [3], in test [4], in test [5] and in test [20] was more than 100 µM in each case. In addition, the TGI was more than 100 µM in test [6]; more than 100 µM in [7]; more than 100 µM in test [8]; 79.1 µM in test [9]; more than 100 µM in test [10]; more than 100 µM in test [11]. Further, the TGI in test [12] was more than 100 µM; in test [13], more than 100 µM; in [14] it was more than 100 µM; in test [15] it was 70.4 µM; in test [16] it was more than 100 µM; in test [18] it was more than 100 µM. Moreover, the TGI in [19] was more than 100 µM.

Values taken from PubChem BioAssay (NCI).
